Results reported in PMC8091166 (Journal of the American Chemical Society, 2017).

Legend:
HeLa cells [1] = experiment: Annexin V/PI assay; assay type: cell-based
HeLa cells [2] = experiment: MTT assay, in vitro anticancer activity in HeLa cells
[3] = Capacity factor on a C18 RP-HPLC column; assay type: physicochemical; details: isocratic 40:60 MeCN:H2O, 0.1% TFA; for MeCN Complex Capacity Factor: MeCN adduct of the complex
[4] = system: intracellular reactive oxygen species (ROS) in HeLa cells; experiment: ROS analysis with DCFDA and flow cytometry; assay type: cell-based; details: DCFDA
HeLa cells [5] = experiment: Cell viability in the presence of inhibitors; assay type: cell-based; details: 15 μM Z-VAD-FMK
[6] = system: KBCP20 cisplatin-resistant cervical cancer cell line; experiment: Cell viability in KBCP20 cells; assay type: cell-based
[7] = system: KB-3-1 cervical cancer cell line; experiment: Cell viability in KB-3-1 cells; assay type: cell-based
HeLa cells [8] = experiment: Cell cycle analysis; assay type: cell-based
[9] = system: A2780 ovarian cancer cell line; experiment: Cell viability in A2780 cells; assay type: cell-based
[10] = system: A2780CP70 cisplatin-resistant ovarian cancer cell line; experiment: Cell viability in A2780CP70 cells; assay type: cell-based
[11] = system: MRC-5 normal lung fibroblasts; experiment: Cell viability in MRC-5 cells; assay type: cell-based
[12] = system: A549 CisR cisplatin-resistant lung cancer cell line; experiment: Cell viability in A549 CisR cells; assay type: cell-based
[13] = system: H460 lung cancer cell line; experiment: Cell viability in H460 cells; assay type: cell-based
[14] = system: PARP, cleaved PARP, LC3, ERK, p-ERK in HeLa cells; experiment: Western blot analysis of protein expression; assay type: cell-based
[15] = system: A549 lung cancer cell line; experiment: Cell viability in A549 cells; assay type: cell-based
[16] = system: H460 CisR cisplatin-resistant lung cancer cell line; experiment: Cell viability in H460 CisR cells; assay type: cell-based
[17] = system: mitochondrial membrane potential (MMP) in HeLa cells; experiment: JC-1 assay; assay type: cell-based; details: 13 at 5 or 10 μM

For `COc1cc([C@@H]2c3cc4c(cc3[C@@H](O[C@@H]3O[C@@H]5CO[C@@H](C)O[C@H]5[C@H](O)[C@H]3O)[C@H]3COC(=O)[C@H]23)OCO4)cc(OC)c1O` [etoposide], the “effect of pan-caspase inhibitor Z-VAD-FMK in the annexin V assay” value (HeLa cells [1]) was “reduce the apoptotic population”.

In the case of `O.[C-]#[O+].[C-]#[O+].[C-]#[O+].[Re+].c1ccc(-c2ccnc3c2ccc2c(-c4ccccc4)ccnc23)cc1` [Complex 14], the “relative cytotoxicity among the complexes” value (HeLa cells [2]) is reported as “substantially diminished relative to that of 13” and the “MeCN Complex Capacity Factor” value [3] is reported as greater than 17.

For `OO` [Complex H2O2, H2O2], the “increase in the intracellular ROS” value [4] was “greater than 30 fold”.

For `N.N.[Cl][Pt][Cl]` [Cisplatin, cisplatin], the “change of IC50 in the presence of Z-VAD-FMK” value (HeLa cells [5]) was “increased by a factor of four”, the IC50 [6] was 36 ± 7 µM and the IC50 [7] was 1 ± 0.3 µM. The “cell cycle arrest phase” value (HeLa cells [8]) was “inhibits cells predominantly in the S-phase”, the IC50 [9] was 0.23 ± 0.07 µM and the IC50 ([10]; A2780CP70 cells) was 8.2 ± 1.8 µM. The “RF (A2780), resistance factor” value ([10]; IC50 in A2780CP70 divided by IC50 in A2780) was 36, the IC50 [11] was 0.43 ± 0.14 µM and the IC50 ([12]; A549 CisR cells) was 12.4 ± 8.5 µM. The “RF (A549), resistance factor” value ([12]; IC50 in A549 CisR divided by IC50 in A549) was 4.1, the IC50 [13] was 0.75 ± 0.43 µM and the “expression levels of PARP, cleaved PARP, LC3, ERK, p-ERK” value [14] was “induced the increase of cleaved PARP levels”. It also gave an IC50 [15] of 3 ± 1.8 µM, an IC50 (HeLa cells [2]; read-out: 50% growth inhibitory concentration (IC50), MTT assay) of 3 ± 1.2 µM and an IC50 ([16]; H460 CisR cells) of 3.4 ± 1.6 µM. The “RF (H460), resistance factor” value ([16]; IC50 in H460 CisR divided by IC50 in H460) was 4.5.

In the case of `COC(=O)c1ccnc(-c2cc(C(=O)OC)ccn2)c1.O.[C-]#[O+].[C-]#[O+].[C-]#[O+].[Re+]` [Complex 11], the “relative cytotoxicity among the complexes” value (HeLa cells [2]) is reported as “least active”, the “MeCN Complex Capacity Factor” value [3] is reported as 8.2 and the “Aqua Complex Capacity Factor” value [3] is reported as 4.2.

With “carbonyl cyanide m-chlorophenyl hydrazine [CCCP]” the “depolarization of the MMP (JC-1 aggregates)” value [17] was “substantial reduction in the number of JC-1 aggregates”.
